According to patent US5219839A, “Adenosine derivatives, their methods of preparation and pharmaceutical compositions in which they are present” (Laboratories UPSA, priority 1992, dated 1993):

What was measured:
[1] = system: twisting and stretching movements in mice; assay: Phenylbenzoquinone test (analgesic activity); assay type: in vivo; details: one hour before phenylbenzoquinone i.p., 5 minutes observation; for Phenylbenzoquinone test 50% inhibitory dose: p.o.; for ED50: Mus musculus, po, read-out: Phenylbenzoquinone test 50% inhibitory dose
Method: The intraperitoneal injection of phenylbenzoquinone causes twisting and stretching movements in mice. Analgesics prevent or reduce this syndrome, which can be considered as the exteriorization of diffuse abdominal pain.
A 0.02% solution of phenylbenzoquinone in water is administered in a volume of 1 ml/100 g.
The products of the Examples are administered orally one hour before the injection of phenylbenzoquinone.
The stretching and twisting movements are counted for each mouse over an observation period of 5 minutes.

A1 receptors = target: T1, A1 receptors (Rattus norvegicus, UniProt P25099); assay: Binding to adenosine A1 receptors: competitive displacement of [^3 H] PIA, rat brain membranes; details: [^3 H] PIA 2.5 nM, n=3; for inhibition at 10 µM: 10^-5 M, read-out: % displacement of the labeled ligand, A1, 1E-5M; for % displacement of the labeled ligand, A1, 1E-7M / inhibition at 0.1 µM: 10^-7 M; for % displacement of the labeled ligand, A1, 1E-7M: 0.1 µM; for inhibition at 0.1 µM: read-out: % displacement of the labeled ligand, A1, 1E-7M
T1 construct: the brain is quickly removed and washed in cold isotonic solution; from tissue; host or cells: rat brain hemispheres (membrane homogenate)
T1 sequence (P25099 1-326): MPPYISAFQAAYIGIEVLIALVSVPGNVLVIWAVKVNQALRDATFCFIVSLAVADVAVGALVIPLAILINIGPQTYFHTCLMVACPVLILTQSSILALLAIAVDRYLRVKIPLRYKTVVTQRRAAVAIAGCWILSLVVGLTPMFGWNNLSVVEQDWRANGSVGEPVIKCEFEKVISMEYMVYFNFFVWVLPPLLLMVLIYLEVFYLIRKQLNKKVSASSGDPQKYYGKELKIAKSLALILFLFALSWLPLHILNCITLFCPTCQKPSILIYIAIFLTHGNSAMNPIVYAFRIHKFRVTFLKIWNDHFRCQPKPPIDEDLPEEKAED
Method: (§1) The affinity of the products of the Examples for the rat central A1 and A2 adenosinergic receptors is determined by the competitive technique using a radioactive ligand specifically bound either to the A1 receptors ([^3 H] PIA) or to the A2 receptors ([^3 H] NECA).
After the animal has been sacrificed by decapitation, the brain is quickly removed and washed in cold isotonic solution. The two hemispheres are separated and weighed and each of them is introduced into a polyallomer tube containing 25 volumes of cold homogenization buffer. Homogenization is effected using an Ultra-Turrax for 30 seconds (3 times 10 seconds with 10-second intervals, 70% of the maximum speed). The ground material obtained is centrifuged at 1000 g (≈3000 rpm) for 10 minutes at 4° C.
The supernatant is centrifuged again at 48,000 g (≈20,000 rpm) for 20 minutes at 4° C.
When this step is complete, the residue is taken up with 4 volumes of homogenization buffer, resuspended using a Vortex and homogenized with the Ultra-Turrax. Adenosine deaminase is then added at a rate of 1 U/ml, i.e. 1 μl/ml of homogenate, using a 10 μl Hamilton syringe.
After this treatment, the homogenate is shaken for 30 minutes at room temperature and then centrifuged at […] (≈20,000 rpm) for 30 minutes at 4° C.
The residue obtained is resuspended in 10 volumes of homogenization buffer and passed through the Ultra-Turrax for 20 seconds (2 times 10 seconds with a 10-second interval, 70% of the maximum speed).
The homogenate prepared in this way is used for the competitive tests. It is kept at 4° C. if the studies take place the same day, or stored at -20° C. in the form of 10 ml aliquots.
After the homogenate has been thawed at room temperature, it is passed through a Potter homogenizer (6 manual to-and-fro movements, speed 6), diluted to 2/5 in incubation buffer and placed in a water bath thermostated at 4° C., with shaking, until the end of the experiment.
(§2) 50 μl of [^3 H] PIA at 100 nM, i.e. 2.5 nM in the final reaction medium allowing for the 1/40 dilution, and 50 μl of the product of the Example at the concentrations considered (10^-5 M and 10^-7 M) are introduced into the reaction tubes. The reaction is initiated by the addition of 1 ml of homogenate and 900 μl of incubation buffer. The procedure is identical for all the beta-blockers studied.
(§3) The tubes are shaken and incubated in a water bath at 20° C. for 30 minutes. When the incubation is complete, the contents of the tubes are filtered on Whatman GF/B paper. Each tube is washed twice with 2 ml of rinsing buffer and then the filters themselves are rinsed with 3 ml of this same buffer.
The filters are then transferred to counting flasks and 10 ml of liquid scintillator (Ready Solv HP/b, Beckman) are added.
After they have been shaken, the flasks are stored in a refrigerator overnight and the radioactivity is then determined in a liquid scintillation counter.
(§4) 3 tests are performed for each concentration studied. The non-specific binding of the [^3 H] PIA is assessed by measuring the amount of radioactivity retained on the filter in the presence of 10^-5 M phenylisopropyladenosine (PIA). The value of the non-specific binding is systematically subtracted from that of the tests.
(§5) The results are expressed for each product in the form of the percentage displacement (n=3) of the labeled radioligand at concentrations of 10^-5 M and 10^-7 M.

A2 receptors = target: T2, A2 receptors (Rattus norvegicus, UniProt P30543); assay: Binding to adenosine A2 receptors: competitive displacement of [^3 H] NECA, rat striatum membranes; details: [^3 H] NECA 4 nM, n=3; for % displacement of the labeled ligand, A2, 1E-5M / inhibition at 10 µM: 10^-5 M; for % displacement of the labeled ligand, A2, 1E-5M: 10 µM; for % displacement of the labeled ligand, A2, 1E-7M / inhibition at 0.1 µM: 10^-7 M; for % displacement of the labeled ligand, A2, 1E-7M: 0.1 µM; for inhibition at 10 µM: read-out: % displacement of the labeled ligand, A2, 1E-5M; for inhibition at 0.1 µM: read-out: % displacement of the labeled ligand, A2, 1E-7M
T2 construct: The two hemispheres are separated and the striatum is removed from each of them (Bruns et al., 1986); from tissue; host or cells: rat striatum (membrane homogenate)
Method: as §1
After decapitation of the animal, the brain is quickly removed and washed in cold isotonic solution. The two hemispheres are separated and the striatum is removed from each of them (Bruns et al., 1986), weighed and introduced into a polyallomer tube containing 10 volumes of cold homogenization buffer. The tissue is homogenized with an Ultra-Turrax for 30 seconds (3 times 10 seconds with 10-second intervals, 70% of the maximum speed). The ground material is centrifuged at 50,000 g (≈20,500 rpm) for 10 minutes at 4° C.
The residue obtained is resuspended in 10 volumes of homogenization buffer using a Vortex and homogenized with the Ultra-Turrax (5 to 10 seconds, 70% of the maximum speed).
Adenosine deaminase is then added at a rate of 1 U/ml, i.e. 1 μl/ml of homogenate, using a 10 μl Hamilton syringe. The homogenate treated in this way is shaken at room temperature for 30 minutes.
When the incubation is complete, the homogenate is centrifuged at 50,000 g (≈20,500 rpm) for 10 minutes at 4° C.
The residue is taken up with 5 volumes of cold homogenization buffer and passed through the Ultra-Turrax (2 times 10 seconds with a 10-second interval, 70% of the maximum speed) and the homogenate prepared in this way is finally frozen at -70° C.
After the homogenate has been thawed at room temperature, 15 volumes of incubation buffer are added. The homogenate is shaken on a Vortex, passed through a Potter homogenizer (6 to-and-fro movements, speed 6), diluted to 1/10 in incubation buffer and finally placed in a water bath thermostated at 4° C., with shaking, until the end of the experiment.
as §2, with “NECA” for “PIA”, “160” for “100”, “4” for “2.5”, “similar” for “identical”, “compounds” for “beta-blockers”
as §3, with “25°” for “20°”, “60” for “30”, “buffer before being transferred to counting flasks.” for “buffer.”
10 ml of liquid scintillator (Ready Solv HP/b, Beckman) are added to all the flasks. These are shaken and stored in a refrigerator overnight. The radioactivity is determined in a liquid scintillation counter.
as §4, with “NECA” for “PIA”, “determined” for “assessed”, “5 μM N-ethylcarboxamidoadenosine (NECA).” for “10^-5 M phenylisopropyladenosine (PIA).”
as §5

T2 sequence (P30543 whole entry): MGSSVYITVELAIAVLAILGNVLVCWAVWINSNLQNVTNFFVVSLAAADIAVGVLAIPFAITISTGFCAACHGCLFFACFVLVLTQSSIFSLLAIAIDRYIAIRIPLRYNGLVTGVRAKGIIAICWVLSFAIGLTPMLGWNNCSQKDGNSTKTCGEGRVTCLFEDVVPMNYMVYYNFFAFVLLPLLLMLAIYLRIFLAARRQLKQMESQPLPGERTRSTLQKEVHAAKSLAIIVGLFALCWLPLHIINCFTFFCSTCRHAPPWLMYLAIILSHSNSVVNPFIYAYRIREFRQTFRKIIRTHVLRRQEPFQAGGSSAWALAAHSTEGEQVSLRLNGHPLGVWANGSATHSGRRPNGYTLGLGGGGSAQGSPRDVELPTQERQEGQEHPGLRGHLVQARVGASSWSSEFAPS

SMILES | Phenylbenzoquinone test 50% inhibitory dose [1] | inhibition at 10 µM (A1 receptors) | % displacement of the labeled ligand, A1, 1E-7M (A1 receptors) | % displacement of the labeled ligand, A2, 1E-5M (A2 receptors) | % displacement of the labeled ligand, A2, 1E-7M (A2 receptors) | inhibition at 10 µM (A2 receptors) | ED50 [1] | inhibition at 0.1 µM (A1 receptors) | inhibition at 0.1 µM (A2 receptors)
O=C(NC1CC1)[C@H]1O[C@@H](n2cnc3c(NCC4CC4(c4ccccc4)c4ccccc4)ncnc32)[C@H](O)[C@@H]1O (single isomer, unassigned) [Example 44, β-D-Ribofuranuronamido-N-cyclopropyl-1-deoxy-1-[6-[(-)-[[2,2-diphenylcyclopropyl]methyl]amino]-9H-purin-9-yl]] | ≈ 1 mg/kg | 90% | 10% | 100% | 19% | – | – | – | –
CCNC(=O)[C@H]1O[C@@H](n2cnc3c(NCC4CC4(c4ccccc4)c4ccccc4)ncnc32)[C@H](O)[C@@H]1O (single isomer, unassigned) [Example 48, β-D-Ribofuranuronamido-N-ethyl-1-deoxy-1-[6-[(+)-[[2,2-diphenylcyclopropyl]methyl]amino]-9H-purin-9-yl]] | 0.3 mg/kg | 99% | 54% | – | 71% | 92% | – | – | –
CC(C)NC(=O)[C@H]1O[C@@H](n2cnc3c(NCC4CC4(c4ccccc4)c4ccccc4)ncnc32)[C@H](O)[C@@H]1O (mixture of isomers) [Example 47, β-D-Ribofuranuronamido-N-isopropyl-1-deoxy-1-[6-[(±)-[[2,2-diphenylcyclopropyl]methyl]amino]-9H-purin-9-yl]] | – | 93% | – | – | – | 84% | 2 mg/kg | 7% | 17%
O=C(NC1CC1)[C@H]1O[C@@H](n2cnc3c(NCC4CC4(c4ccc(F)cc4)c4ccc(F)cc4)ncnc32)[C@H](O)[C@@H]1O (mixture of isomers) [Example 40, β-D-Ribofuranuronamido-N-cyclopropyl-1-deoxy-1-[6-[(±)-[[2-di(4-fluorophenyl)cyclopropyl]methyl]amino]-9H-purin-9-yl]] | – | 94% | – | – | – | 89% | 0.5 mg/kg | 15% | 53%
O=C(NC1CC1)[C@H]1O[C@@H](n2cnc3c(NCC4CC45c4ccccc4CCc4ccccc45)ncnc32)[C@H](O)[C@@H]1O (mixture of isomers) [Example 45, β-D-Ribofuranuronamido-N-cyclopropyl-1-deoxy-1-[6-[(±)-2-[spiro[10',11'-dihydrocyclopropane-1,5'-[5H]-dibenzo[a,d]cycloheptene]methyl]amino]-9H-purin-9-yl]] | – | 93% | – | – | – | 79% | 1.6 mg/kg | 20% | 12%
CCNC(=O)[C@H]1O[C@@H](n2cnc3c(NCC4CC4(c4ccccc4)c4ccccc4)ncnc32)[C@H](O)[C@@H]1O (mixture of isomers) [Example 41, β-D-Ribofuranuronamido-N-ethyl-1-deoxy-1-[6-[(±)-[[2,2-diphenylcyclopropyl]methyl]amino]-9H-purin-9-yl]] | – | 98% | – | – | – | 100% | 0.5 mg/kg | 31% | 68%
CCNC(=O)[C@H]1O[C@@H](n2cnc3c(NCC4CC4(c4ccccc4)c4ccccc4)ncnc32)[C@H](O)[C@@H]1O (single isomer, unassigned) [Example 49, β-D-Ribofuranuronamido-N-ethyl-1-deoxy-1-[6-[(-)-[[2,2-diphenylcyclopropyl]methyl]amino]-9H-purin-9-yl]] | 0.7 mg/kg | 93% | 15% | 86% | 0% | – | – | – | –
O=C(NC1CC1)[C@H]1O[C@@H](n2cnc3c(NCC4CC45c4ccccc4-c4ccccc45)ncnc32)[C@H](O)[C@@H]1O (mixture of isomers) [Example 46, β-D-Ribofuranuronamido-N-cyclopropyl-1-deoxy-1-[6-[(±)-2-[spiro[cyclopropane-1,9'-[9H]-fluorene]methyl]amino]-9H-purin-9-yl]] | – | – | – | – | – | 92% | 0.6 mg/kg | – | 38%
